The values below come from patent publication US20120046253A1, “STABLE PHARMACOLOGICALLY ACTIVE COMPOSITIONS INCLUDING VITAMIN D CONTAINING AND CORTICOSTEROID COMPOUNDS WITH LOW pH COMPATIBILITY” (priority 2006, published 2012).

A short description of data set [1]: Stability of the calcipotriene and betamethasone dipropionate composition at 55° C. (quantitative HPLC). It counts as physicochemical. To be noted: Example 1 ointment. As to the method: (§1) In both of the above cases, stability is measured after incubation in a closed container at the recited temperature for the recited amount of time; stability is determined by any quantitative assay for the recited component, and is preferably determined by HPLC methodologies known in the art.

The conditions of data set [2]: reportedly; cited from earlier work.
Data set [3] in a line: Stability of the calcipotriene and betamethasone dipropionate composition at 40° C. (quantitative HPLC). It counts as physicochemical. As to the method: as §1
The amount of the recited components in Table 1 were measured by quantitiative HPLC 1-2 days after the cooling (Time zero) and at the recited times after storage at the recited temperatures.
The amount of the recited components in Table 1 were measured by quantitiative HPLC 1-2 days after the cooling (Time zero) and at the recited times after storage at the recited temperatures).

The conditions of data set [4]: asserted in U.S. Pat. No. 5,763,426; cited from earlier work.

`C=C1/C(=C\C=C2/CCC[C@]3(C)[C@@H]([C@H](C)/C=C/[C@@H](O)C4CC4)CC[C@@H]23)C[C@@H](O)C[C@@H]1O` [Calcipotriene, calcipotriene]: the “Assay (%) 3 days” value in data set [1] (stored at 55° C. 3 days) is 96.4%. In addition, the “Assay (%) Time zero” value in data set [1] (time zero (Table 2)) was 95.8%; in data set [3] (Example 1 ointment (medium chain triglyceride), 1-2 days after cooling, HPLC), 95.8%. In data set [2], the “pH at which most stable” value is on record as “greater than 8”. In addition, the “Assay (%) 1 months” value in data set [3] (Example 1 ointment, stored at 40° C. 1 month) is listed as 98.0%. The “Assay (%) 2 months” value in data set [3] (Example 1 ointment, stored at 40° C. 2 months) is 97.1%. Also, in data set [3] (Example 1 ointment, stored at 40° C. 3 months), the “Assay (%) 3 months” value came out at 100.5%. In data set [3] (Example 2 ointment (polysorbate 80), time zero), the “Assay Time zero” value worked out at 99.1%. Further, in data set [3] (Example 2 ointment, stored at 40° C. 1 month), the “Assay 1 months” value is 97.9%. The “Assay 2 months” value in data set [3] (Example 2 ointment, stored at 40° C. 2 months) is 97.4%.

Take `C=C1/C(=C\C=C2/CCC[C@]3(C)[C@@H]([C@H](C)/C=C/[C@@H](O)C4CC4)CC[C@@H]23)C[C@@H](O)C[C@@H]1O` [calcipotriol hydrate]: the “stability of crystal form” value in data set [4] is “surprisingly stable”.
